Source: ChEMBL document CHEMBL4507291 (2021)

How the values were obtained:
[1] = target: DNA-dependent protein kinase catalytic subunit (Homo sapiens) (UniProt P78527); assay: DNA-PK Kinase screen; details: Compound concentration 1.0 uM
[2] = target: Testis-specific serine/threonine-protein kinase 1 (TSSK1B) (Homo sapiens) (UniProt Q9BXA7); assay: STK22D (TSSK1) Kinase screen; details: Compound concentration 1.0 uM
[3] = target: T1, Mitogen-activated protein kinase kinase kinase kinase 2 (Homo sapiens) (UniProt Q12851); assay: MAP4K2 (GCK) Kinase screen; details: Compound concentration 1.0 uM
T1 sequence (whole entry): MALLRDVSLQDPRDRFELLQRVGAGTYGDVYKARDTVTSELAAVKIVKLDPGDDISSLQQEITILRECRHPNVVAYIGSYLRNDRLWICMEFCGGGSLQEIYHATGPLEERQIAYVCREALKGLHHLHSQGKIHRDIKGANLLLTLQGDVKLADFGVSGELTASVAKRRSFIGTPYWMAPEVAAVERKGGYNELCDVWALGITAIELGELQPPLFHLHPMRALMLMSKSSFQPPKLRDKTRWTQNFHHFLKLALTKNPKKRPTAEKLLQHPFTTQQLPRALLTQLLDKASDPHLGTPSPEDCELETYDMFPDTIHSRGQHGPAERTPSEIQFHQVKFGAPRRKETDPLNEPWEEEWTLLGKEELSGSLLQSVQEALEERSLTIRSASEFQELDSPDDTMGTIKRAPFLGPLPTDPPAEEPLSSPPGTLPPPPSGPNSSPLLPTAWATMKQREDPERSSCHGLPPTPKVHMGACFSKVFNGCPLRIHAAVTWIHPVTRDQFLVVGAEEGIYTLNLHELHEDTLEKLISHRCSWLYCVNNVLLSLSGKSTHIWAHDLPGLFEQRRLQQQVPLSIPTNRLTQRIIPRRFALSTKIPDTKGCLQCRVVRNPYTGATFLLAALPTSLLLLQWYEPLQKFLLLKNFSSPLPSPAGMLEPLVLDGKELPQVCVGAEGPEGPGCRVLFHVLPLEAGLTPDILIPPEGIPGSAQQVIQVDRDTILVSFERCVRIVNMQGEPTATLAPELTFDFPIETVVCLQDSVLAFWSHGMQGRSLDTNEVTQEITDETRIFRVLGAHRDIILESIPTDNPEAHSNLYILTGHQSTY

[4] = target: Adenosine receptor A1 (Homo sapiens) (UniProt P30542); details: Compound concentration 10.0 uM
Sequence of Adenosine receptor A1 (Homo sapiens) (P30542 whole entry): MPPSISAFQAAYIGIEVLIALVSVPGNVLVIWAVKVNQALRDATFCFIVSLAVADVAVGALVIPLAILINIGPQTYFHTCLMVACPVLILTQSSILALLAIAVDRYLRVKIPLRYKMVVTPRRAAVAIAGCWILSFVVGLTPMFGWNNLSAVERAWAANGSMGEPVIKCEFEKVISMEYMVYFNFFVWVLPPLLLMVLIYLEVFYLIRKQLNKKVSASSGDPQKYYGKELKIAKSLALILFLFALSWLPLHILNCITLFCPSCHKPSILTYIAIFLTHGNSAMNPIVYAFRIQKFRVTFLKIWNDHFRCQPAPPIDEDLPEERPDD

[5] = target: T2, Protein kinase C iota type (Homo sapiens) (UniProt P41743); assay: PRKCI (PKC iota) Kinase screen; details: Compound concentration 1.0 uM
T2 sequence (whole entry): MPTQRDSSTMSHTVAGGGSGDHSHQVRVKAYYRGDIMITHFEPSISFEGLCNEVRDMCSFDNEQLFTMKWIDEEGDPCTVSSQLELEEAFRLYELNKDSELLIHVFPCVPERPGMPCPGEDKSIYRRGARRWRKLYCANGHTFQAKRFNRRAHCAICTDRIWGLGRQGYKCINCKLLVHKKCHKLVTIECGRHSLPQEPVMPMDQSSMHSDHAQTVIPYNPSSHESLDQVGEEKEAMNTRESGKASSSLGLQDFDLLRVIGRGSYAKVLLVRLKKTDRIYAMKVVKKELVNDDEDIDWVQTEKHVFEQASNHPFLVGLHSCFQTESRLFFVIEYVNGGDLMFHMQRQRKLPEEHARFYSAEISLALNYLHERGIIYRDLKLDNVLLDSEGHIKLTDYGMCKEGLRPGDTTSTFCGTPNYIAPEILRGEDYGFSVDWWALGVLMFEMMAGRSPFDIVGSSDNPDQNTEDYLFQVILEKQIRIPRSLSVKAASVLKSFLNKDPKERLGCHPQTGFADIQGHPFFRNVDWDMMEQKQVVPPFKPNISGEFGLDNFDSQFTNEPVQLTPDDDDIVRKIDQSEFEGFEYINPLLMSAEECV

[6] = target: Vascular endothelial growth factor receptor 3 (Homo sapiens) (UniProt P35916); assay: FLT4 (VEGFR3) Kinase screen; details: Compound concentration 1.0 uM
[7] = target: Tyrosine-protein kinase JAK2 (Homo sapiens) (UniProt O60674); assay: JAK2 Kinase screen; details: Compound concentration 1.0 uM
[8] = target: T3, Mitogen-activated protein kinase kinase kinase 5 (Homo sapiens) (UniProt Q99683); assay: MAP3K5 (ASK1) Kinase screen; details: Compound concentration 1.0 uM
T3 sequence (whole entry): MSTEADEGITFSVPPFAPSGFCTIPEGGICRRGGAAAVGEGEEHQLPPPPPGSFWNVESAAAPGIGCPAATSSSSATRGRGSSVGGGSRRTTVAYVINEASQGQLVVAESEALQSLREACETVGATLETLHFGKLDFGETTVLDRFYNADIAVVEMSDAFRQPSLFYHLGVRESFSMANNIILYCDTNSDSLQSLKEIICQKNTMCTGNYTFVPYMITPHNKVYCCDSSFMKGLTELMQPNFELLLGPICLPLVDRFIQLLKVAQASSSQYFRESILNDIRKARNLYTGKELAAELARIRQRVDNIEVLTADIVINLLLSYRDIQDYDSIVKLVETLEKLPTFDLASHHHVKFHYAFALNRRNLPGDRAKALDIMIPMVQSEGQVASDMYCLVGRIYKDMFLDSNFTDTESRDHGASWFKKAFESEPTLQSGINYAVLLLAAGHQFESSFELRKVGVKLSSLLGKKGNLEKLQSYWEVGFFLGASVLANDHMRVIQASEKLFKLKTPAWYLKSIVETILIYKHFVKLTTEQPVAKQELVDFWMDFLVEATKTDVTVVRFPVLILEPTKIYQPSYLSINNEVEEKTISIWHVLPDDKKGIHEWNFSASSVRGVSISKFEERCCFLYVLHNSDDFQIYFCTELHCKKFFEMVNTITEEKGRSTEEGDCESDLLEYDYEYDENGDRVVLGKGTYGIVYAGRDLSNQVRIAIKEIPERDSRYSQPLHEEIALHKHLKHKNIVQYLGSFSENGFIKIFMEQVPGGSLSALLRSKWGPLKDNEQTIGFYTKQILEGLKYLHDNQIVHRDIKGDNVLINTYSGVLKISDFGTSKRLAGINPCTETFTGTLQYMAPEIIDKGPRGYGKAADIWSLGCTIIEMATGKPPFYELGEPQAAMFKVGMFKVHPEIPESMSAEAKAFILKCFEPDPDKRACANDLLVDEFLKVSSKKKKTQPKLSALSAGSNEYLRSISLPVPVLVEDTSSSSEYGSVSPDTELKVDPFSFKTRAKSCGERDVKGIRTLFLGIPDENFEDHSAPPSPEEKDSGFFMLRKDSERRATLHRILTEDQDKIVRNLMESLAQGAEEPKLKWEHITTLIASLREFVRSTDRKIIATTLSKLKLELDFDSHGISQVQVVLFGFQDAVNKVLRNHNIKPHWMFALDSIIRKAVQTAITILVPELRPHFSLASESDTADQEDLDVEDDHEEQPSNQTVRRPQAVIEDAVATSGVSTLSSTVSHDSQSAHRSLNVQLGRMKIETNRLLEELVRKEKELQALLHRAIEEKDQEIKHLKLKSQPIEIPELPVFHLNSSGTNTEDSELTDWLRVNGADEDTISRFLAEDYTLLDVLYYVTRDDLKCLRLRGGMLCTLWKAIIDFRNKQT

Measured: inhibition

Sequence of Testis-specific serine/threonine-protein kinase 1 (TSSK1B) (Homo sapiens) (Q9BXA7 whole entry, looked up): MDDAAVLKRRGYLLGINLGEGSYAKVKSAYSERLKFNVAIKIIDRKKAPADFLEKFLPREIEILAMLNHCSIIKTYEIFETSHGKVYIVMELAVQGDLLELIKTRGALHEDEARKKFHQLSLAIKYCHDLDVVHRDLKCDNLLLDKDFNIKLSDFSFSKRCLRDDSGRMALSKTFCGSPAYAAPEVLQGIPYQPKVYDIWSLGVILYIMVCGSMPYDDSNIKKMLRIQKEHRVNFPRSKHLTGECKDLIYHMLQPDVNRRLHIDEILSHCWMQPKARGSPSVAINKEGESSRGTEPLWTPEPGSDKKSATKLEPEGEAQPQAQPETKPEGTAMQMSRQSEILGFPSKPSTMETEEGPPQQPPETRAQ
Sequence of DNA-dependent protein kinase catalytic subunit (Homo sapiens) (P78527 whole entry): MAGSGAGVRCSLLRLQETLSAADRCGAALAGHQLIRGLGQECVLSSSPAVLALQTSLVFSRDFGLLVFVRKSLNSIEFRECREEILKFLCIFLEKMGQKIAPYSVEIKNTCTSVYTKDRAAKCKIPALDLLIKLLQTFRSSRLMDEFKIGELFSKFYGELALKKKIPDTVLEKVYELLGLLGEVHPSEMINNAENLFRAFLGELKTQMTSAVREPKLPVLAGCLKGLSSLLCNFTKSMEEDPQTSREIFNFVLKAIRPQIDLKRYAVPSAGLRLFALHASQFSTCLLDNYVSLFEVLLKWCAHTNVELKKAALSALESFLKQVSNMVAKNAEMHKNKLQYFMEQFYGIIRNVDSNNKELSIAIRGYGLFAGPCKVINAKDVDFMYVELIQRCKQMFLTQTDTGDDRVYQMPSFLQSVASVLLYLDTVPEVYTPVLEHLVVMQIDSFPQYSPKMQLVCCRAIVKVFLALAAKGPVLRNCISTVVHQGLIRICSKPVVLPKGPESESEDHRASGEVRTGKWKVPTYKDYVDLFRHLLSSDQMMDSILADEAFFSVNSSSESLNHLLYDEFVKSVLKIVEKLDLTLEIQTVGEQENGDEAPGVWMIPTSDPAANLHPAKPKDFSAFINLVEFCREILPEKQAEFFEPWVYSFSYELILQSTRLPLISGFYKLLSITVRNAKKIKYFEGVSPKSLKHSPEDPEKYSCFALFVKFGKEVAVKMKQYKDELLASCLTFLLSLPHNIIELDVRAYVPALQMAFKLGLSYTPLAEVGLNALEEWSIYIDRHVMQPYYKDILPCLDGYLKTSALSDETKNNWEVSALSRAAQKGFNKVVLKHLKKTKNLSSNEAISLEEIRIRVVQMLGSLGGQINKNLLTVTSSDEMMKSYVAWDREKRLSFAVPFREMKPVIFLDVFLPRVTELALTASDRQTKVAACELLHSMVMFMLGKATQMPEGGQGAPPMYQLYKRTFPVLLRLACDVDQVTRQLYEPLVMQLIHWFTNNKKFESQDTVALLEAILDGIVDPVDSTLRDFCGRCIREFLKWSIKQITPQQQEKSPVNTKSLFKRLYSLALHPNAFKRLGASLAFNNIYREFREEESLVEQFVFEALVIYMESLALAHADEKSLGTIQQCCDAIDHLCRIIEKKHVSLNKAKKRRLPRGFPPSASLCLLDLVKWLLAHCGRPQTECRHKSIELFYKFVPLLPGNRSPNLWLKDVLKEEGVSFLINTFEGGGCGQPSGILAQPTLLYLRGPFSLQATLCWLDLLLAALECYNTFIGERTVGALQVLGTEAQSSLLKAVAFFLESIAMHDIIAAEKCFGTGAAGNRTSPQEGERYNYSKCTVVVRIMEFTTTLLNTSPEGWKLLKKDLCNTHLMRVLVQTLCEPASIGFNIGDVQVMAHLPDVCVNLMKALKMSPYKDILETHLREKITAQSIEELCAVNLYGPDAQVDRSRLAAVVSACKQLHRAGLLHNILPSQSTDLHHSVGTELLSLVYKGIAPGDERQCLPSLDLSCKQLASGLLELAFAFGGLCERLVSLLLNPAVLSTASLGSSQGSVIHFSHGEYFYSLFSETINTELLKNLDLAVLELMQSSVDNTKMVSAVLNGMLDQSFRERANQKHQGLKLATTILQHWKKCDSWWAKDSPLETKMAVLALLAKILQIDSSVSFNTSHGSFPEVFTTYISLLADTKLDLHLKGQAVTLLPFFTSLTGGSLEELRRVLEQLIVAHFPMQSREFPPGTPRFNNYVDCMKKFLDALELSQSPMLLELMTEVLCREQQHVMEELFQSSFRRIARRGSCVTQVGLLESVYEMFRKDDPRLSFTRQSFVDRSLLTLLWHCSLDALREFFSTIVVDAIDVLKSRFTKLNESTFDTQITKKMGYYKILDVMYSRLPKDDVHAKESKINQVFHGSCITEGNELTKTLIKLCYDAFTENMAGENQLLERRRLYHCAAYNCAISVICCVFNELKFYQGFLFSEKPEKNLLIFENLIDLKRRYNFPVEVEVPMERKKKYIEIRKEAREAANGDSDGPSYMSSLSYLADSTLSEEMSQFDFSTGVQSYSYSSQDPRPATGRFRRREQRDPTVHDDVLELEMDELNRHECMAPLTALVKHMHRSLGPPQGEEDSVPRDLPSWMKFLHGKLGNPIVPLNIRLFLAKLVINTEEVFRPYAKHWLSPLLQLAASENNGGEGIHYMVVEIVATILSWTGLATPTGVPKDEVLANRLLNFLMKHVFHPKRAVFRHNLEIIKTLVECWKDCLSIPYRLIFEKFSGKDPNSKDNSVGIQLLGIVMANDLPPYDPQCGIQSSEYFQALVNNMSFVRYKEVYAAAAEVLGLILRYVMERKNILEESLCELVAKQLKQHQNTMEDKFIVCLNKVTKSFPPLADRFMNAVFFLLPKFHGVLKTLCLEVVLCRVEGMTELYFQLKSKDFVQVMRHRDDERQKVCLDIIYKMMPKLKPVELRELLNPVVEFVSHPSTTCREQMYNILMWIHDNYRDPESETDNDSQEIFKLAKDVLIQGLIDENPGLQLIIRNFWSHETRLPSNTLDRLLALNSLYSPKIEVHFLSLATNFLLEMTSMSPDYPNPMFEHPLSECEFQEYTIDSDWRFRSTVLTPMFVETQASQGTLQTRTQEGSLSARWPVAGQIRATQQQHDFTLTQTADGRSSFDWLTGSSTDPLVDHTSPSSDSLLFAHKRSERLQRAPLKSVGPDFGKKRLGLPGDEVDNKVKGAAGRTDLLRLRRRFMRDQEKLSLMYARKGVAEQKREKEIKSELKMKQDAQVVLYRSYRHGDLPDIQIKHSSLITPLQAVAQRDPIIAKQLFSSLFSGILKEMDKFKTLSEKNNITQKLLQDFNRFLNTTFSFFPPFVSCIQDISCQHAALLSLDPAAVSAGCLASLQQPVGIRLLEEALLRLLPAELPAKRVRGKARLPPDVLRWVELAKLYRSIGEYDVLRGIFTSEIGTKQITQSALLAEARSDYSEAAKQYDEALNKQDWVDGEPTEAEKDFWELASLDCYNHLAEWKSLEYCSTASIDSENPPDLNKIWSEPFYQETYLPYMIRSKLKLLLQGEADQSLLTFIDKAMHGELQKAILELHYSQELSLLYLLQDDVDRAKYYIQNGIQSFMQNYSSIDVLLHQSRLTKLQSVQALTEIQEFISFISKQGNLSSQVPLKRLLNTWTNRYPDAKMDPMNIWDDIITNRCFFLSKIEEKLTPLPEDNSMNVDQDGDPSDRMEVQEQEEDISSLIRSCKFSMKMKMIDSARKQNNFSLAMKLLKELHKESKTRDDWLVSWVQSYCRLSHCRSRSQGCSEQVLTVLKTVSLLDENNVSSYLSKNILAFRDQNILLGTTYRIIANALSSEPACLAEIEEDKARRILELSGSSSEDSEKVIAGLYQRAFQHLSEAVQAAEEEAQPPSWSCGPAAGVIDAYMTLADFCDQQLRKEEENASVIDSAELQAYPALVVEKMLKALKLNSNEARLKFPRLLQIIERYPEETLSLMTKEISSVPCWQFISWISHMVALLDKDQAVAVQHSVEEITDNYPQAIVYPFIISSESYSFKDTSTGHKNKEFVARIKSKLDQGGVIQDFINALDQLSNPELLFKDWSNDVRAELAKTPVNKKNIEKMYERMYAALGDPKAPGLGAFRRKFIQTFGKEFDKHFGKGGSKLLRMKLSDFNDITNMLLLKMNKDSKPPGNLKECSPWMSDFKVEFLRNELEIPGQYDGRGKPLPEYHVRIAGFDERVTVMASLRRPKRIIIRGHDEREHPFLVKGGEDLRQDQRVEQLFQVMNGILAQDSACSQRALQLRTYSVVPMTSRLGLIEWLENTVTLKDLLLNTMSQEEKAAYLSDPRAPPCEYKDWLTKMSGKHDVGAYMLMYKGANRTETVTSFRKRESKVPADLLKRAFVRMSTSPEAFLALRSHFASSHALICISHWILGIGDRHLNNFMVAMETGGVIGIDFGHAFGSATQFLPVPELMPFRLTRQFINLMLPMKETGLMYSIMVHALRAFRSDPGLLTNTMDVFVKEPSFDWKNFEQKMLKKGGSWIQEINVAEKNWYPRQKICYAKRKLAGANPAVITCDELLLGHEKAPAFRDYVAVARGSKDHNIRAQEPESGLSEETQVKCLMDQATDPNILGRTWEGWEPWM

C[C@@H]1CN(c2cc(-c3n[nH]c4ccc(OC5(C)CC5)cc34)ncn2)C[C@H](C)O1 [MLi-2]
inactive: [1] 21.6% | [2] 15.8% | [3] 30.9% | [4] 29% | [5] -0.512% | [6] 8.71% | [7] 5.78% | [8] 71.9%
